Test results from US10757941B2, “Microbiocidal oxadiazole derivatives” (SYNGENTA PARTICIPATIONS AG, priority 2016, dated 2020).

How the values were obtained:
[1] = system: Puccinia recondita f. Sp. Tritici; assay: Fungicidal activity against Puccinia recondita f. sp. tritici / wheat / leaf disc preventative (brown rust); assay type: in vivo; details: foliar, 200 ppm in the applied formulation, wheat leaf segments cv. Kanzler, preventative (inoculated 1 day after application), assessed 7 to 9 days after application, compared to untreated, read-out: disease control
Summary of the method: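 Wheat cv. Kanzler leaf segments on agar sprayed with formulated compound diluted in water; spore inoculation 1 day after application. Incubated at 19° C., 75% rh, 12 h light/12 h dark; percent disease control versus untreated scored 7 to 9 days after application.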

[2] = system: Puccinia recondita f. Sp. Tritici; assay: Fungicidal activity against Puccinia recondita f. sp. tritici / wheat / leaf disc curative (brown rust); assay type: in vivo; details: foliar, 200 ppm in the applied formulation, wheat leaf segments cv. Kanzler, curative (applied 1 day after inoculation), assessed 6 to 8 days after application, compared to untreated, read-out: disease control
Procedure: Leaf disks or leaf segments of various plant species are cut from plants grown in a greenhouse. The cut leaf disks or segments are placed in multiwell plates (24-well format) onto water agar. The leaf disks are sprayed with a test solution before (preventative) or after (curative) inoculation. Compounds to be tested are prepared as DMSO solutions (max. 10 mg/ml) which are diluted to the appropriate concentration with 0.025% Tween20 just before spraying. The inoculated leaf disks or segments are incubated under defined conditions (temperature, relative humidity, light, etc.) according to the respective test system. A single evaluation of disease level is carried out 3 to 14 days after inoculation, depending on the pathosystem. Percent disease control relative to the untreated check leaf disks or segments is then calculated. Example 2: Fungicidal Activity Against Puccinia recondita f. Sp. Tritici/Wheat/Leaf Disc Curative (Brown Rust) Wheat leaf segments cv. Kanzler are placed on agar in multiwell plates (24-well format). The leaf segments are then inoculated with a spore suspension of the fungus. Plates were stored in darkness at 19° C. and 75% relative humidity. The formulated test compound diluted in water was applied 1 day after inoculation. The leaf segments were incubated at 19° C. and 75% relative humidity under a light regime of 12 hours light/12 hours darkness in a climate cabinet and the activity of a compound was assessed as percent disease control compared to untreated when an appropriate level of disease damage appears in untreated check leaf segments (6 to 8 days after application). The following compounds at 200 ppm in the applied formulation give at least 80% disease control in this test when compared to untreated control leaf disks under the same conditions, which show extensive disease development.

[3] = system: Phakopsora pachyrhizi; assay: Fungicidal activity against Phakopsora pachyrhizi / soybean / leaf disc preventative (Asian soybean rust); assay type: in vivo; details: foliar, 200 ppm in the applied formulation, soybean leaf disks, preventative (inoculated one day after application), assessed 12 to 14 days after application, compared to untreated, read-out: disease control
Summary of the method: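 Preventative test: soybean leaf discs on water agar sprayed with compound diluted in water, inoculated with spore suspension on lower surface one day later. Incubated 24-36 h dark at 20° C., 75% rh, then 12 h light/day; percent disease control versus untreated assessed 12 to 14 days after application.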

[4] = system: Glomerella lagenarium (Colletotrichum lagenarium); assay: Fungicidal activity against Glomerella lagenarium (Colletotrichum lagenarium) liquid culture / cucumber / preventative (anthracnose); assay type: cell-based; details: Colletotrichum orbiculare; 20 ppm in the applied formulation; liquid culture in PDB, 24° C.; inhibition of growth measured photometrically 3 to 4 days after application; compared to untreated; read-out: disease control
Summary of the method: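 Conidia of C. lagenarium from cryogenic storage mixed into potato dextrose broth and added to test compound (DMSO solution) in microtiter plates; incubated at 24° C. Growth inhibition read photometrically 3 to 4 days after application, as percent activity versus untreated check.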

[5] = system: Uromyces viciae-fabael; assay: Fungicidal activity against Uromyces viciae-fabae / field bean / leaf disc preventative (faba-bean rust); assay type: in vivo; details: foliar, 288 h, 100 ppm in the applied formulation, field bean leaf discs, preventative (inoculated two hours after application), assessed 12 days after application, compared to untreated, read-out: disease control
Summary of the method: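 Field bean leaf discs on water agar treated with compound in acetone plus spreader, then inoculated 2 h later by spraying U. viciae-fabae spores on the lower surface. Incubation at 22° C, 18 h day, 70% RH; percent disease control versus untreated scored 12 days after application.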

COC(CN(C)C(=O)c1ccc(-c2noc(C(F)(F)F)n2)c(F)c1)OC [Compound 1.36, N-(2,2-dimethoxyethyl)-3-fluoro-N-methyl-4-[5-(trifluoromethyl)-1,2,4-oxadiazol-3-yl]benzamide]
≥ 80%: pest or weed control at 200 ppm [1] | pest or weed control at 200 ppm [2] | pest or weed control at 200 ppm [3] | inhibition of growth at 20 ppm [4] | pest or weed control at 100 ppm [5]

O=C(NC1CCC1)c1ccc(-c2noc(C(F)(F)F)n2)c(F)c1 [Compound 1.39, N-cyclobutyl-3-fluoro-4-[5-(trifluoromethyl)-1,2,4-oxadiazol-3-yl]benzamide]
≥ 80%: pest or weed control at 200 ppm [1] | pest or weed control at 200 ppm [2] | pest or weed control at 200 ppm [3] | inhibition of growth at 20 ppm [4] | pest or weed control at 100 ppm [5]

CCOCC1(NC(=O)c2ccc(-c3noc(C(F)(F)F)n3)c(F)c2)CC1 [Compound 1.40, N-[1-(ethoxy-methyl)cyclopropyl]-3-fluoro-4-[5-(trifluoromethyl)-1,2,4-oxadiazol-3-yl]benzamide]
≥ 80%: pest or weed control at 200 ppm [1] | pest or weed control at 200 ppm [2] | pest or weed control at 200 ppm [3] | inhibition of growth at 20 ppm [4] | pest or weed control at 100 ppm [5]
